Source: patent US20260056187A1, “METHODS OF FORMING PATIENT-DERIVED 3D CELL CULTURES FOR TRACKING LIVE IMMUNE-TUMOR INTERACTIONS” (OUROTECH, INC., priority 2022, published 2026)

How the values were obtained:
[1] = test system: kidney tumor cells with PBMCs (1:5); test: 3D tumor-immune co-culture, combination therapies, change in tumor cell numbers over 3 days (Example 19); settings: normalized to Day 0, staurosporine 5 μM, axitinib 10 μM + pembrolizumab 10 μg/mL, n=3
[2] = test system: TNBC cell line xenografts (CDXs); settings: BRGS-HIS mice with TNBC CDXs; cited from earlier work
[3] = test system: 3D tumor-immune culture from a patient with renal cell carcinoma (tumor cells and matched PBMCs); test: 3D tumor-immune culture, Keytruda treatment compared to CD3 activation, live cell imaging over 5 days (Example 17); assay type: cell-based, human; settings: for tumor-containing hydrogel dome volume: 10 μg/mL Keytruda vs CD3-activated/control culture, evident by Day 1
Experimental: A) An aliquot of pembrolizumab (25 mg/mL) was diluted in PBS to achieve a working stock of 1 mg/mL. 2 μL of this stock is added to the tumor-immune culture to achieve a final dose of 10 μg/mL. In parallel, 2 μL of a 1 mg/mL stock of human anti-IgG4 is added to a negative control tumor-immune culture.
A tumor sample and matched blood sample from a patient with renal cell carcinoma were prepared according to the foregoing Examples and methods. Briefly, PBMCs were isolated from blood and CD8^+ and CD8^− cells were separated, stained, and recombined as previously described. PBMCs were either cultured with 1 μg/mL anti-CD3 or 10 μg/mL Keytruda for 18 hours. Tumors were dissociated and stained and 10,000 cells were encapsulated in hydrogel as previously described. At TO, 100,000 PBMCs from each condition were added to tumor cultures. Live cell imaging, using confocal microscopy, was conducted each day for 5 days and images were analyzed using the disclosed computer vision pipeline. The presented data are from single replicates obtained from one experiment.

CN[C@@H]1C[C@H]2O[C@@](C)([C@@H]1OC)n1c3ccccc3c3c4c(c5c6ccccc6n2c5c31)C(=O)NC4 [Staurosporine]
change in tumor cell count [1]: decreased tumor cell count the most

nivolumab
time after treatment until significant effect on tumor volume relative to vehicle control [2]: ≥ 10 days

pembrolizumab [Keytruda]
clustering of hydrogel-infiltrated CD8+ PBMCs ([3]; 10 μg/mL Keytruda or 1 μg/mL anti-CD3, over 5 days, single replicate): more clustering over time
rate of dome volume shrinking ([3]; 10 μg/mL Keytruda vs CD3-activated sample, Day 1): higher at Day 1
viability of tumor cells / tumor cell death ([3]; 10 μg/mL Keytruda vs CD3-activated sample, evident by Day 2, single replicate): increased tumor cell death
speed of CD8+ PBMCs infiltrated into the hydrogel (migration peak speed) ([3]; 10 μg/mL Keytruda vs CD3-activated sample, over 5 days, single replicate): higher CD8^+ cell migration peak speed
tumor-containing hydrogel dome volume ([3]; single replicate): dome volume shrinks more
tumor-containing hydrogel dome volume ([3]; single replicate, listed as Keytruda/pembrolizumab): measurable, and noticeable, and may be statistically significantly different, by one day after adding the treatment
clustering of hydrogel-infiltrated CD8- and CD8+ PBMCs together ([3]; 10 μg/mL Keytruda vs CD3 activation, throughout 5 days, single replicate): clustered together more
infiltration of CD8+ PBMCs into the tumor-containing hydrogel (absolute counts) ([3]; PBMCs cultured 18 hours with 10 μg/mL Keytruda vs 1 μg/mL anti-CD3, evident as early as Day 1, single replicate): increased infiltration of CD8^+ cells into the tumor-containing hydrogel
